Values quoted from earlier work as cited in US20150376703A1, “METHOD AND SYSTEM TO PREDICT RESPONSE TO PAIN TREATMENTS” (PATHWAY GENOMICS CORPORATION, priority 2013, published 2015).
Values belong to the molecule of their own block, whether it stands above or below them.

Legend:
[1] = system: Glycoprotein IIIa (PLA1/A2) subunit of glycoprotein IIb/IIIa; conditions: patients carrying the PLA2 polymorphism
ACE (I/D) = target: T1, ACE (I/D) (Homo sapiens, UniProt P12821); conditions: patients bearing the ACE-II-Allele
T1 construct: host or cells: patients (endogenous enzyme)

Alpha-Adducin = conditions: patients who share the 460Gly/Trp polymorphism
KCNE2 (T8A in MiRP 1) = target: T2, KCNE2 (T8A in MiRP 1) (Homo sapiens, UniProt Q12809+Q9Y6J6, T8A)
T2 construct: host or cells: patients (endogenous protein)

5-Lipoxygenase (ALOX5) = target: T3, 5-Lipoxygenase (ALOX5) (Homo sapiens, UniProt P09917); conditions: patients who share a specific tandem repeat in the promoter
T3 construct: host or cells: patients (endogenous enzyme)
T3 sequence (P09917 1-674): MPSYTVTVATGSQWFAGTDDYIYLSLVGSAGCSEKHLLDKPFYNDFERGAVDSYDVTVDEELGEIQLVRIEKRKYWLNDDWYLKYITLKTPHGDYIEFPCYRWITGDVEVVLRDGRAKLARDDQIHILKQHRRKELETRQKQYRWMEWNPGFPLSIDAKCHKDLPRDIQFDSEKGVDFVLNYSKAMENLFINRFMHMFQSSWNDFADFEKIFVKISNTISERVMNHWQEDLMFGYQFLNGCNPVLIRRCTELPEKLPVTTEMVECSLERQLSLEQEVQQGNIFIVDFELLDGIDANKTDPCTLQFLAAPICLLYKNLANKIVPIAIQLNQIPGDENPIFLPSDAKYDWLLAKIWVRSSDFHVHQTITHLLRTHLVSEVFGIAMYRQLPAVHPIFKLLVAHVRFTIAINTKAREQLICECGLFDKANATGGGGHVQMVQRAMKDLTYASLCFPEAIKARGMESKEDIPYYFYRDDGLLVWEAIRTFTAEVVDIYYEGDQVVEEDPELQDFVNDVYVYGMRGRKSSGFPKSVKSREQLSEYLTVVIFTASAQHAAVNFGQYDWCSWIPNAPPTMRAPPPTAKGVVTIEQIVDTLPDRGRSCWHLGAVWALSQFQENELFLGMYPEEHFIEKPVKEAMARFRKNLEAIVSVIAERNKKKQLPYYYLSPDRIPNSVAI

T2 sequence (Q9Y6J6 whole entry T8A): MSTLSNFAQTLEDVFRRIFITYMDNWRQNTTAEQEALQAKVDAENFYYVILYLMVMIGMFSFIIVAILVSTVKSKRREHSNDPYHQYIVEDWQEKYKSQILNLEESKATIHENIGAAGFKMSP
T2 sequence (Q12809 whole entry): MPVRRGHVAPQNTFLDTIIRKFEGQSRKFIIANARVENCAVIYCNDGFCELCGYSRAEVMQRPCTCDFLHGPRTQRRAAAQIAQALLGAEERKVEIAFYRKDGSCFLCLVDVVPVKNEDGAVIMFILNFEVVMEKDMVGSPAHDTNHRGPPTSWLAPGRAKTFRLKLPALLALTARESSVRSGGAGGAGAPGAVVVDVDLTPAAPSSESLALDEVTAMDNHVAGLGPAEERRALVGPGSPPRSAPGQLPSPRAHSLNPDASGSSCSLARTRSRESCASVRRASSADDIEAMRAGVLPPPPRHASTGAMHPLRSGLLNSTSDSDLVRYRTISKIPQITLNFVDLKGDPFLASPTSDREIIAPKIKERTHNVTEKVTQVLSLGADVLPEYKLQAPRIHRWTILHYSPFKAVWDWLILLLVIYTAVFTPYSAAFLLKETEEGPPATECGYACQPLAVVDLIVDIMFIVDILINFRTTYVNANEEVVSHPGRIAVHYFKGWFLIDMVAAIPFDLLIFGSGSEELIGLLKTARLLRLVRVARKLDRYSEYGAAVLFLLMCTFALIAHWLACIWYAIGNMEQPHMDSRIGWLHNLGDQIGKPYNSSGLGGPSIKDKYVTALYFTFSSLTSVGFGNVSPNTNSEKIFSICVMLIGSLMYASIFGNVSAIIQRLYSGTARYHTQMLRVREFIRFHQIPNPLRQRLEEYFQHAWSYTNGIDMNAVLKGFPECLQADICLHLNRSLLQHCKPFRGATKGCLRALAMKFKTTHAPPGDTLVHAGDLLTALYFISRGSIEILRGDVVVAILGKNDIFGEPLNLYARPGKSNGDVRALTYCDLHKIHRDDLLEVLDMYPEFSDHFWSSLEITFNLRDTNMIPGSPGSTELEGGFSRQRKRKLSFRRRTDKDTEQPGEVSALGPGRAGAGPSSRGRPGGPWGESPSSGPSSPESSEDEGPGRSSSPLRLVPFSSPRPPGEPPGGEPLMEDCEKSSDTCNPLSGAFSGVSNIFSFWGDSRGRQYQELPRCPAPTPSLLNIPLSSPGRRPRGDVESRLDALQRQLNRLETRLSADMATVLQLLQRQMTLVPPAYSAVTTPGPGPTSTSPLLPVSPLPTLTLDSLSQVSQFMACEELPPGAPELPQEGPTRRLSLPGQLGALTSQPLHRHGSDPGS
T1 sequence (P12821 30-1306): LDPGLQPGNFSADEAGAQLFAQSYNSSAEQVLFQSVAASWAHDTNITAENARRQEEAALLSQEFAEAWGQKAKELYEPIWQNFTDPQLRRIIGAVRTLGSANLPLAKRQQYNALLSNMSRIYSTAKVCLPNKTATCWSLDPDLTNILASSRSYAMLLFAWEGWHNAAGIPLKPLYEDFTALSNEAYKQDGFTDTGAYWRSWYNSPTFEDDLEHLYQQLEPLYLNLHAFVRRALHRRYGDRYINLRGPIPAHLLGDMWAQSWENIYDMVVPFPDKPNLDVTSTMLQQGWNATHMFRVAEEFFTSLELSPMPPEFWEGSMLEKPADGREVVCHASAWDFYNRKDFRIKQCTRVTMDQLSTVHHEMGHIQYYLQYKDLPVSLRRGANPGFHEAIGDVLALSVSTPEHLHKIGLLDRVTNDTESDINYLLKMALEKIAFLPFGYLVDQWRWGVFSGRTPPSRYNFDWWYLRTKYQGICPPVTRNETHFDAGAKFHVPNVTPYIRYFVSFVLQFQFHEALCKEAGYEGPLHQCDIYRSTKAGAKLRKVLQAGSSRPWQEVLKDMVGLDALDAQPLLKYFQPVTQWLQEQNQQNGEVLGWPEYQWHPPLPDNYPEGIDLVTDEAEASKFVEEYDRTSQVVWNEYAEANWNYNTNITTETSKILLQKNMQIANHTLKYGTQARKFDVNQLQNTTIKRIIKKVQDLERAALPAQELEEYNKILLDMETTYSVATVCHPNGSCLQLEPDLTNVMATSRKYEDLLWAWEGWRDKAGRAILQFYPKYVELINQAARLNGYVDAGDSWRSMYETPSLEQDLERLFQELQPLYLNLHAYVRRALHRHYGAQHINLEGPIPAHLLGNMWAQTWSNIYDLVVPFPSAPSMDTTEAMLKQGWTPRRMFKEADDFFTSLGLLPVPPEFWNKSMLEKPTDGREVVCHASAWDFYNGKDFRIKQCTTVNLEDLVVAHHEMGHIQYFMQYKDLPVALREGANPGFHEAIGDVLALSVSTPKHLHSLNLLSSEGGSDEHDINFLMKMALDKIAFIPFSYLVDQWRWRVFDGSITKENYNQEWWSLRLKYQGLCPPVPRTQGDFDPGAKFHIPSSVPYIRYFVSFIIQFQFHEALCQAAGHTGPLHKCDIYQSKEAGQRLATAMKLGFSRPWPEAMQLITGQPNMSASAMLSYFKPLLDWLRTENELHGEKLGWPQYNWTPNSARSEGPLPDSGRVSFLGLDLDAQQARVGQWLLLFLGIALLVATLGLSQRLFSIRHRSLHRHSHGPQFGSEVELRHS

Molecule: CC(=O)Oc1ccccc1C(=O)O [Aspirin]
Clinical Result: antiplatelet effect [1]: Reduced response in patients

Molecule: C[C@H](N[C@@H](CCc1ccccc1)C(=O)O)C(=O)N1CCC[C@H]1C(=O)O [Enalaprilat]
Clinical Result: response (ACE (I/D)): Better response of patients

Molecule: NS(=O)(=O)c1cc2c(cc1Cl)NCNS2(=O)=O [Hydrochlorothiazide]
Clinical Result: sensitivity (Alpha-Adducin): hypertension). Higher

Molecule: O=c1[nH]c2ccccc2n1CCCN1CCN(C(c2ccccc2)c2ccccc2)CC1 [Oxatomid]
Clinical Result: adverse effect (KCNE2 (T8A in MiRP 1)): Drug induced Long-QT-

Molecule: Cc1cc(NS(=O)(=O)c2ccc(N)cc2)no1 [Sulfamethoxazol]
Clinical Result: adverse effect (KCNE2 (T8A in MiRP 1)): Drug induced Long-QT-

Clinical Result (5-Lipoxygenase (ALOX5)): No effect in patients who
Molecule: CC(c1cc2ccccc2s1)N(O)C(N)=O (centres unmarked) [Zileuton]

Clinical Result: response (ACE (I/D)): Better response of patients
Molecule: CCOC(=O)[C@H](CCc1ccccc1)N[C@@H](C)C(=O)N1CCC[C@H]1C(=O)O [enalapril]

B1: Abciximab (antibody, chains of the INN, looked up, V domains shown)
VH: EVQLQQSGTVLARPGASVKMSCEASGYTFTNYWMHWVKQRPGQGLEWIGAIYPGNSDTSYIQKFKGKAKLTAVTSTTSVYMELSSLTNEDSAVYYCTLYDGYYVFAYWGQGTLVTVSA
VL: EIVLTQSPVTLSVTPGDSVSLSCRASRDISNNLHWFQQTSHESPRLLIKYASQSMSGIPSRFSGSGSGTDFTLSINSVETEDFGMYFCQQTNSWPYTFGGGTKLEIK
Clinical Result: antiplatelet effect [1]: Reduced response in patients
